Reference: patent US20260306464A1, “LINAPRAZAN GLURATE FOR TREATING GASTROESOPHAGEAL REFLUX DISEASE (GERD)” (Cinclus Pharma Holding AB (publ), priority 2023, published 2026)

Experiment: LEED study: endoscopic healing of erosive esophagitis / LA grade improvement after 4 weeks
Assay type: in vivo, human
Source text: The severity of esophagitis is typically indicated using the Los Angeles (LA) classification of reflux esophagitis, which is based on an endoscopic assessment of the patient. The LA grade scoring system divides reflux esophagitis into four categories (LA grade A to D) based on the extent of esophageal mucosal breaks. […] LA grade C esophagitis is defined as one or more mucosal breaks that are continuous between the tops of two mucosal folds, but which involves less than 75% of the esophageal circumference. The most severe form, LA grade D esophagitis, is defined as one or more mucosal breaks involving at least 75% of the esophageal circumference (Lundell et al., Gut 1999, vol. 45, p. 172-180).
As used herein, the terms “improvement of the LA grade” and “LA grade improvement” refer to one or more steps from one LA grade to a lower LA grade (such as from grade D to grade C, B or A) or to being healed. In some embodiments, the improvement of the LA grade is 1 step. In some embodiments, the improvement of the LA grade is 2 steps. In some embodiments, the improvement of the LA grade is 3 steps. In some embodiments, the improvement of the LA grade is 4 steps.
The study included patients with erosive esophagitis (eGERD). Patients were divided into two cohorts, one with patients having moderate to severe eGERD (LA grade C/D) and one with patients having milder eGERD (LA grade A/B) with a history of only partial response to PPI-treatment. The primary endpoint of the study was to support dose selection of linaprazan glurate for the phase III program in eGERD, through central assessment of healing of erosive esophagitis after four weeks of treatment. The sample size, i.e., the number of patients needed, for measuring dose related efficacy was based on the patient cohort with moderate to severe eGERD. After initial endoscopy and other screening procedures, 248 patients were randomized equally into one of five treatment groups, receiving either four weeks treatment with linaprazan glurate in four dose levels, or four weeks lansoprazole in the approved standard eGERD healing dose. Thereafter, an endoscopic evaluation of healing was performed, where healing was defined as no presence of esophageal erosions, i.e., no erosive damage to the esophageal mucosa. After the endoscopic evaluation, all patient groups received lansoprazole for four weeks in a maintenance phase. A retrospective central review of the endoscopy findings was performed, and 162 patients were available for evaluation of the primary endpoint. All enrolled 248 patients were included in the safety analysis.
The study was a randomized, double-blind, active comparator-controlled study with a parallel group design including four arms with linaprazan glurate and one arm with lansoprazole. Pharmacokinetic (PK) blood sampling pre-dose, close before the first and the second dose administration was performed at Day 7, Day 14 and Day 28 visits days in all patients. 248 patients with erosive esophagitis due to GERD LA grade C or D and patients with erosive esophagitis due to GERD LA grade A or B with at least partial symptom response but still endoscopically unhealed after 8 weeks history of standard treatment healing course with PPI, were randomized.
Randomization to one of the treatments with linaprazan glurate 25 mg, 50 mg, 75 mg, 100 mg twice daily (BID), or lansoprazole 30 mg once daily (QD) was based on a 1:1:1:1:1 scheme. One site could not enroll more than about 20% of the overall number of patients (48 patients per site).
The duration of each patient's participation in the study, including screening, blind treatment period and open-label treatment period, was approximately 60 days. The patients were randomized for 4 weeks (28 days, −2/+5 days) of double-blind treatment and were provided with IMP for 35 days (including one additional blister pack dispensed at Visit 2/Day 0) to allow for treatment up to the visit window. […]

[1] = LA grade C/D, LG 100 mg BID, 4 weeks

## Cc1cccc(C)c1CNc1cc(C(=O)NCCOC(=O)CCCC(=O)O)cn2c(C)c(C)nc12 [linaprazan glurate, 5-{2-[({8-[(2,6-dimethylbenzyl)amino]-2,3-dimethylimidazo[1,2-a]pyridine-6-yl}carbonyl)-amino]ethoxy}-5-oxopentanoic acid]
4-week treatment vs 30 mg/day lansoprazole
  healing rate vs lansoprazole: significantly higher healing rates
4 weeks, LG 25-100 mg BID
  dose response in the healing rates: clear dose response
25, 50, 75 or 100 mg twice daily for 4 weeks
  healing rate of eGERD: high healing rates
LA grade A/B, 4 weeks, BID
  highest four-week healing rate in a linaprazan glurate dosing group: 91%
LA grade A/B/C/D, 4 weeks, all LG doses, FIG. 8
  mean healing rate, all patients treated with linaprazan glurate: 80%
LA grade C/D, 4 weeks, BID, FIG. 5
  highest mean LA grade improvement in a linaprazan glurate dosing group: 3.1
LA grade C/D, 4 weeks, all LG doses
  LA grade improvement of all LG-treated patients vs lansoprazole: higher than lansoprazole
LA grade C/D, 4 weeks, FIG. 6 (all LG dose group), FIG. 7 (LG 75 mg dose group)
  highest four-week healing rate in a linaprazan glurate dosing group: 89%
[1]
  patients whose 4-week LA grade was A: 6 out of 7
  response in the 100 mg dose group: lower than expected
LA grade C/D, post-hoc analysis, Fisher's exact test
  healing rate of all LG-treated patients vs lansoprazole: significantly higher than lansoprazole
LA grade C/D, post-hoc, Fisher's exact test
  mean harmonic p-value, healing rate LG vs lansoprazole: 0.0404
